Broadly, the IC50 is the midpoint of a concentration-inhibition curve.

From patent EP0830136B1, “NEW CRY[…] […]” (priority 1995, dated 1996) come the findings set out here.

In one data set the test system is SKVLB1 cells. Kind of data set: cells. As to conditions: Homo sapiens, SKVLB1, 48 h, read-out: SKVLB1 IC50 (nM). It counts as cell-based. The method, then:
The Jurkat T cell leukemia line and A-10 rat aortic smooth muscle cells were obtained from the American Type Culture Collection and were cultured in BME containing 10% FBS and 50µg/mL gentamycin sulfate. […] Both cell lines were maintained in BME containing 10% FBS and 50µg/mL gentamycin sulfate.
Cell proliferation assays were performed as described by Skehan et al.^11 For Jurkat cells, cultures were treated with the indicated drugs as described in Skehan^11 and total cell numbers were determined by counting the cells in a hemacytometer. The percentage of cells in mitosis was determined by staining with 0.4% Giemsa in PBS followed by three rapid washes with PBS. At least 1000 cells per treatment were scored for the presence of mitotic figures and the mitotic index was calculated as the ratio of cells with mitotic figures to the total number of cells counted.

In data set [1] the test system is A-10 rat aortic smooth muscle cells. The data set is described as follows: Immunofluorescence of cytoskeleton in A-10 cells. It counts as cell-based. The method, then:
A-10 cells were grown to near-confluency on glass coverslips in BME/10% FBS. Compounds in PBS were added to the indicated final concentrations and cells were incubated for an additional 24 hours. For the staining of microtubules and intermediate filaments, the cells were fixed with cold methanol and incubated with PBS containing 10% calf serum to block nonspecific binding sites. Cells were then incubated at 37°C for 60 min with either monoclonal anti-β-tubulin or with monoclonal anti-vimentin at dilutions recommended by the manufacturer. Bound primary antibodies were subsequently visualized by a 45-minute incubation with fluorescein-conjugated rabbit antimouse IgG. The coverslips were mounted on microscope slides and the fluorescence patterns were examined and photographed using a Zeiss Photomicroscope ill equipped with epifluorescence optics for fluorescein. […] PBS containing 100nM TRITC-phalloidin was then added and the mixture was allowed to incubate for 45 min at 37° C. The cells were washed rapidly three times with PBS before the coverslips were mounted and immediately photographed as described above.

In the next data set the test system is SKOV3 cells. Kind of data set: Cell proliferation assay (SRB staining), SKOV3. It counts as cell-based, Human. The settings on record: 24 hours with IC50 doses. (In general: The SRB assay estimates cell density from bound dye.)
Data set [2] has as its system Jurkat T cell leukemia line. Kind of data set: Jurkat cell proliferation and mitotic index. It counts as cell-based. The settings on record: Homo sapiens; Jurkat cells, 24 hours; read-out: IC50s for inhibition of cell proliferation and accumulation of cells in mitosis.
A further data set has as its system tumors implanted in mice. As to conditions: for total dosage required in vivo relative to comparator: mouse; for in vivo antitumor activity: statement in words.
Data set [3] relates to human tumor cell lines KB and LoVo. Kind of data set: In vitro cytotoxicity, KB and LoVo. As to conditions: read-out: cytotoxicities IC50's.
In the next data set the test system is Colon 26. The data set is described as follows: In vivo activity, Colon 26 experiment. Also noted: species or system mice.
For data set [4] the following is noted: pH 11 / hydrolysis.
The mark [5] stands for this setting: A-10 cells, 24 hours, 2µM cytochalasin B, 100nM vinblastine or 10nM cryptophycin compounds.

pIC50: −log10 of the molar value. “Also recorded” adds a separate entry of the source.

Procedure for Colon 26: Gross log kill is defined as T-C/3.2 Td where T is the median time in days for the tumors of the treated group to reach 750mg, C is the median time in days for the tumors of the control group to reach 750mg, and Td is the tumor volume doubling time (T.H. Corbett et al., Cytotoxic Anticancer Drugs: Models and Concepts for Drug Discovery and Development, pp 35-87; Kluwer: Norwell, 1992).

Turning to `CC(=O)O[C@H]1C(=O)[C@@]2(C)[C@H]([C@H](OC(=O)c3ccccc3)[C@]3(O)C[C@H](OC(=O)[C@H](O)[C@@H](NC(=O)c4ccccc4)c4ccccc4)C(C)=C1C3(C)C)[C@]1(OC(C)=O)CO[C@@H]1C[C@@H]2O` [taxol], in the data set with SKVLB1 cells, the IC50 came to 8000 nM. For the same molecule, in data set [1] (A-10 cells, 10µM taxol), the “microtubule organization in taxol-treated cells” value was “extensively bundled”. Besides, in the data set with SKOV3 cells, the “increase in cell number during treatment” value was determined as 25%.

For `CC[C@]1(O)C[C@@H]2CN(CCc3c([nH]c4ccccc34)[C@@](C(=O)OC)(c3cc4c(cc3OC)N(C)[C@H]3[C@@](O)(C(=O)OC)[C@H](OC(C)=O)[C@]5(CC)C=CCN6CC[C@]43[C@@H]65)C2)C1` [vinblastine], the pIC50 in data set [2] was 8.10. For the same molecule, the IC50 with SKVLB1 cells came out at 4200 nM. The “microtubule depolymerization after taxol pretreatment” value in data set [1] is “pretreatment with taxol prevented microtubule depolymerization”. Also, the “microtubule repolymerization 1 hour after removal of drug” value in data set [1] (A-10 cells, 100nM vinblastine or 10nM cryptophycins for 24 hr, then drug-free medium 1 hour) was “significant levels of microtubules”. Moreover, the “microtubule repolymerization 24 hours after removal of drug” value in data set [1] (A-10 cells, 100nM vinblastine or 10nM cryptophycins for 24 hr, then drug-free medium 24 hours) is reported as “complete morphological recovery”. Besides, in data set [1] (setting [5]), the effect on microfilaments entry is reported as “Neither compound affected microfilawent organization”; the effect on microtubules result is listed as “marked depletion of microtubules; also recorded: complete depolymerization of microtubules; also recorded: complete microtubule depolymerization”; the “effect on vimentin intermediate filaments” value is on record as “collapsed, forming concentric rings around the nuclei”. In addition, the “increase in cell number during treatment” value in the data set with SKOV3 cells came out at 25%. Moreover, the “increase in cell numbers in the 24 hours following removal of the drug” value with SKOV3 cells (then drug-free medium) is on record as “approximately 3 fold”.

Consider `COc1ccc(C[C@H]2NC(=O)/C=C/C[C@@H]([C@H](C)[C@@H](O)[C@@H](Cl)c3ccccc3)OC(=O)[C@H](CC(C)C)OC(=O)C(C)(C)CNC2=O)cc1Cl` [Cryptophycin 55], for which, in the data set with tumors implanted in mice, the “total dosage required in vivo relative to comparator” value is recorded as “three times the total dosage compared with Cryptophycin 8” and the “in vivo antitumor activity” value is “active in vivo”. For the same molecule, the pIC50 in data set [3] was 10.33 to 10.48. In addition, in the data set with Colon 26, the “gross log kill value” was found to be 1.2.

Turning to `COc1ccc(C[C@H]2NC(=O)/C=C/C[C@@H]([C@H](C)[C@H]3O[C@@H]3c3ccccc3)OC(=O)[C@H](CC(C)C)OC(=O)C(C)(C)CNC2=O)cc1Cl` [Cryptophycin 52], in the data set on tumors implanted in mice, the “total dosage required in vivo relative to comparator” value is recorded as “roughly three times the total dosage compared with Cryptophycin 1” and the “in vivo antitumor activity” value is recorded as “active in vivo”. For the same molecule, in data set [3], the pIC50 was 10.15 to 10.37. For the same molecule, in data set [4], the “stability of the C-D ester bond” value is recorded as “stable at pH 11”.
